In publication PMC4639751, “Development of 1-N-^11C-Methyl-L- and -D-Tryptophan for pharmacokinetic imaging of the immune checkpoint inhibitor 1-Methyl-Tryptophan” (Scientific Reports, 2015):

Tests used:
[1] = In vitro stability assay in rat plasma; assay type: in vitro ADME; conditions: 37 °C, 90 min incubation, HPLC analysis
Protocol: To determine the in vitro property of the two newly-developed radioprobes, we performed plasma stability studies by HPLC analysis at 37 °C for 90 min. […] More than 95% of ^11C-L-1Mtrp and ^11C-D-1Mtrp remained intact and no detectable metabolites were found at least 90 min after plasma incubation in vitro.
^11C-L-1MTrp and ^11C-D-1MTrp (70–74 MBq, 0.4−0.6 nmol) was dissolved in 2 mL of freshly isolated rat plasma and incubated at 37 °C for 90 min. After 0, 30, 60 and 90 min, an aliquot of 300 μL incubated mixture was taken, proteins in plasma were precipitated with equal volumes of 1 M HClO4 solution, followed by centrifugation at 15000 rpm for 2 min at 4 °C. The supernatant was collected and analyzed by HPLC (Capcell Pack UG80 column, 4.6 mm i.d. × 250 mm) with […] phosphate buffer/CH3CN (8.5/1.5, v/v) at a flow rate of 1 mL/min.

[2] = PET, rats
Protocol: Emission scans were acquired in three-dimensional list mode with an energy window of 350–650 keV under isoflurane anesthesia, from 0 to 60 min after radioprobe administration. All list-mode acquisition data were sorted into three-dimensional sinograms, which were then Fourier-rebinned into two-dimensional sonograms (frames × min: 4 × 1, 8 × 2, 8 × 5), and corrections for scanner dead time, randoms, and decay of the injected radioprobe. Dynamic images were reconstructed with filtered back-projection using a Hanning filter and a Nyquist cut-off of 0.5 cycles/pixel. Immediately after completion of PET scans, contrast-enhanced CT scans were performed in the rats by using the small-animal CT system (R_mCT2; Rigaku, Tokyo) after injection of 1 mL of non-ionic contrast medium (Iopamiron 370, Bayer, Osaka). The scan conditions included radiation parameters of 200 μA and 90 kV, FOV of 60 mm, and acquisition time of 34 s. CT images were collected, reconstructed, and observed using I-View-R software (Rigaku, The Woodlands, TX). Averaged CT attenuation images and dynamic PET images were reconstructed and fused using the Siemens Inveon Research Workplace (IRW) 4.0 software.
Regions of interest (ROI) in major organs and tissues were drawn in the PET/CT fusion images by manual outlining the organs and tissues in the CT images throughout the image slices by using IRW 4.0 software. The average radioactivity concentration was obtained from mean pixel values in the ROI volume. Regional uptake of radioactivity was decay-corrected to the injection time and expressed as the standardized uptake value (SUV), normalized for injected radioactivity and body weight. SUV was calculated as SUV = (radioactivity per cubic centimeter tissue/injected radioactivity) × body weight in grams. TACs of the radioprobes in individual organ and tissue were determined. Values of area under time-activity curves (AUC2–60 min, SUV × min) were calculated from 2 to 60 min post-injection to minimize the early perfusion effects.

[3] = Ex vivo biodistribution studies; conditions: SD rats; for Biodistribution, radioactivity in Blood / Biodistribution, radioactivity in Brain / Biodistribution, radioactivity in Heart / Biodistribution, radioactivity in Intestine / Biodistribution, radioactivity in Liver / Biodistribution, radioactivity in Lung / Biodistribution, radioactivity in Muscle / Biodistribution, radioactivity in Pancreas / Biodistribution, radioactivity in Spleen / Biodistribution, radioactivity in Kidney: mean ± SEM, n = 4
From the text: Major organs and tissues (blood, heart, lung, liver, pancreas, spleen, kidney, intestine, muscle, and brain), were promptly excised, harvested, and weighed. Radioactivity was counted using a γ-counter and expressed as a percentage of the injected dose per gram of wet tissue (%ID/g). All radioactivity measurements were corrected for decay.

[4] = Ex vivo metabolite studies; assay type: in vivo; conditions: SD rats; for Ex vivo metabolite analysis, % of tailored L- and D-1MTrp entity in Brain / Ex vivo metabolite analysis, % of tailored L- and D-1MTrp entity in Pancreas / Ex vivo metabolite analysis, % of tailored L- and D-1MTrp entity in Plasma: HPLC, mean ± SEM, n = 4
Protocol: To validate the derivation of radioactivity into the relevant organs and tissues, we assessed the metabolites of both radiolabelled isomers in the blood, brain, and pancreas of rats. […] Few radioactive metabolites were detected in these three tissues at 15 and 60 min after ^11C-L-1MTrp and ^11C-D-1MTrp injection.
SD rats were injected with ^11C-L-1MTrp or ^11C-D-1MTrp (70–74 MBq, 0.4–0.6 nmol) via a lateral tail vein. The animals were sacrificed by cervical dislocation at 15 and 60 min after the injection. Blood was collected and centrifuged at 15000 rpm for 2 min at 4 °C to separate the plasma. Brain and pancreas were rapidly removed, then homogenized in equal volumes of 1 M HClO4 solution with a Silent Crusher S homogenizer (Heidolph Instruments). Plasma and homogenates of brain and pancreas from rats were deproteinized and then analyzed by HPLC as described in the stability assay in vitro.

[5] = 60 min after injection, mean ± SEM, four rats

[11CH3]n1cc(C[C@@H](N)C(=O)O)c2ccccc21 [^11C-D-1MTrp, 1-N-^11C-methyl-D-tryptophan]
Fraction remaining intact in rat plasma [1]: More than 95%
SUV in the kidney [2, 5]: 1.79 ± 0.07
SUV in the other organs (other than kidneys) ([2]; 60 min after injection, span over organs): 0.20−0.61
Maximum accumulation (SUV) in the kidneys ([2]; within 5 min after administration): 6.03 ± 0.43
Biodistribution, radioactivity in Blood ([3]; 1 min after injection): 1.47 ± 0.02 %ID/g tissue
Biodistribution, radioactivity in Brain ([3]; 1 min after injection): 0.04 ± 0.00 %ID/g tissue
Biodistribution, radioactivity in Heart ([3]; 1 min after injection): 0.58 ± 0.02 %ID/g tissue
Biodistribution, radioactivity in Intestine ([3]; 1 min after injection): 0.93 ± 0.02 %ID/g tissue
Biodistribution, radioactivity in Liver ([3]; 1 min after injection): 1.24 ± 0.03 %ID/g tissue
Biodistribution, radioactivity in Lung ([3]; 1 min after injection): 0.79 ± 0.03 %ID/g tissue
Biodistribution, radioactivity in Muscle ([3]; 1 min after injection): 0.12 ± 0.00 %ID/g tissue
Biodistribution, radioactivity in Pancreas ([3]; 1 min after injection): 0.76 ± 0.07 %ID/g tissue
Biodistribution, radioactivity in Spleen ([3]; 1 min after injection): 0.62 ± 0.02 %ID/g tissue
Biodistribution, radioactivity in Blood ([3]; 5 min after injection): 0.79 ± 0.03 %ID/g tissue
Biodistribution, radioactivity in Brain ([3]; 5 min after injection): 0.05 ± 0.01 %ID/g tissue
Biodistribution, radioactivity in Heart ([3]; 5 min after injection): 0.55 ± 0.02 %ID/g tissue
Biodistribution, radioactivity in Intestine ([3]; 5 min after injection): 0.68 ± 0.02 %ID/g tissue
Biodistribution, radioactivity in Liver ([3]; 5 min after injection): 0.97 ± 0.02 %ID/g tissue
Biodistribution, radioactivity in Lung ([3]; 5 min after injection): 0.60 ± 0.02 %ID/g tissue
Biodistribution, radioactivity in Muscle ([3]; 5 min after injection): 0.26 ± 0.01 %ID/g tissue
Biodistribution, radioactivity in Pancreas ([3]; 5 min after injection): 1.03 ± 0.15 %ID/g tissue
Biodistribution, radioactivity in Spleen ([3]; 5 min after injection): 0.51 ± 0.02 %ID/g tissue
Biodistribution, radioactivity in Blood ([3]; 15 min after injection): 0.49 ± 0.01 %ID/g tissue
Biodistribution, radioactivity in Brain ([3]; 15 min after injection): 0.08 ± 0.00 %ID/g tissue
Biodistribution, radioactivity in Heart ([3]; 15 min after injection): 0.52 ± 0.02 %ID/g tissue
Biodistribution, radioactivity in Intestine ([3]; 15 min after injection): 0.53 ± 0.00 %ID/g tissue
Biodistribution, radioactivity in Kidney ([3]; 15 min after injection): 3.66 ± 0.15 %ID/g tissue
Biodistribution, radioactivity in Liver ([3]; 15 min after injection): 0.64 ± 0.01 %ID/g tissue
Biodistribution, radioactivity in Lung ([3]; 15 min after injection): 0.46 ± 0.02 %ID/g tissue
Biodistribution, radioactivity in Muscle ([3]; 15 min after injection): 0.35 ± 0.01 %ID/g tissue
Biodistribution, radioactivity in Pancreas ([3]; 15 min after injection): 1.01 ± 0.06 %ID/g tissue
Biodistribution, radioactivity in Spleen ([3]; 15 min after injection): 0.48 ± 0.01 %ID/g tissue
Biodistribution, radioactivity in Blood ([3]; 30 min after injection): 0.40 ± 0.01 %ID/g tissue
Biodistribution, radioactivity in Brain ([3]; 30 min after injection): 0.11 ± 0.00 %ID/g tissue
Biodistribution, radioactivity in Heart ([3]; 30 min after injection): 0.42 ± 0.02 %ID/g tissue
Biodistribution, radioactivity in Intestine ([3]; 30 min after injection): 0.40 ± 0.01 %ID/g tissue
Biodistribution, radioactivity in Kidney ([3]; 30 min after injection): 2.12 ± 0.16 %ID/g tissue
Biodistribution, radioactivity in Liver ([3]; 30 min after injection): 0.47 ± 0.01 %ID/g tissue
Biodistribution, radioactivity in Lung ([3]; 30 min after injection): 0.37 ± 0.01 %ID/g tissue
Biodistribution, radioactivity in Muscle ([3]; 30 min after injection): 0.38 ± 0.03 %ID/g tissue
Biodistribution, radioactivity in Pancreas ([3]; 30 min after injection): 1.21 ± 0.05 %ID/g tissue
Biodistribution, radioactivity in Spleen ([3]; 30 min after injection): 0.40 ± 0.02 %ID/g tissue
Biodistribution, radioactivity in Blood ([3]; 60 min after injection): 0.32 ± 0.01 %ID/g tissue
Biodistribution, radioactivity in Brain ([3]; 60 min after injection): 0.15 ± 0.01 %ID/g tissue
Biodistribution, radioactivity in Heart ([3]; 60 min after injection): 0.30 ± 0.01 %ID/g tissue
Biodistribution, radioactivity in Intestine ([3]; 60 min after injection): 0.32 ± 0.01 %ID/g tissue
Biodistribution, radioactivity in Kidney ([3]; 60 min after injection): 1.16 ± 0.03 %ID/g tissue
Biodistribution, radioactivity in Liver ([3]; 60 min after injection): 0.37 ± 0.01 %ID/g tissue
Biodistribution, radioactivity in Lung ([3]; 60 min after injection): 0.28 ± 0.01 %ID/g tissue
Biodistribution, radioactivity in Muscle ([3]; 60 min after injection): 0.33 ± 0.01 %ID/g tissue
Biodistribution, radioactivity in Pancreas ([3]; 60 min after injection): 1.03 ± 0.06 %ID/g tissue
Biodistribution, radioactivity in Spleen ([3]; 60 min after injection): 0.32 ± 0.01 %ID/g tissue
Measured uptake in organs other than kidneys and pancreas ([3]; 60 min after radioprobe injection, span over organs): 0.15−0.37 % ID/g
Radioactivity in the brain, pancreas, and blood associated with L- and D-1MTrp ([4]; 15 and 60 min after injection): more than 94%
Ex vivo metabolite analysis, % of tailored L- and D-1MTrp entity in Brain ([4]; 15 min after injection): 95.06 ± 0.38%
Ex vivo metabolite analysis, % of tailored L- and D-1MTrp entity in Pancreas ([4]; 15 min after injection): 94.08 ± 0.51%
Ex vivo metabolite analysis, % of tailored L- and D-1MTrp entity in Plasma ([4]; 15 min after injection): 94.45 ± 0.03%
Ex vivo metabolite analysis, % of tailored L- and D-1MTrp entity in Brain ([4]; 60 min after injection): 98.16 ± 0.47%
Ex vivo metabolite analysis, % of tailored L- and D-1MTrp entity in Pancreas ([4]; 60 min after injection): 96.31 ± 0.48%
Ex vivo metabolite analysis, % of tailored L- and D-1MTrp entity in Plasma ([4]; 60 min after injection): 98.81 ± 0.25%

Cn1cc(C[C@H](N)C(=O)O)c2ccccc21 [L-1MTrp, 1-Methyl-L-tryptophan, reference compound]
SUV in the pancreas [2, 5]: 2.28
Biodistribution, radioactivity in Pancreas ([3]; 60 min after injection): 2.27 %ID/g tissue
